# Measurements: patent US20080207708A1, “Oxazole and Thiazole Compounds and Their Use in the Treatment of Pge2 Mediated Disorders” (GLAXO GROUP LIMITED, priority 2005, published 2008)
# Counter-ions that a name gives are not always drawn.
# Target: T1, EP1 receptors (Homo sapiens, UniProt P34995)
# T1 sequence (P34995 1-402): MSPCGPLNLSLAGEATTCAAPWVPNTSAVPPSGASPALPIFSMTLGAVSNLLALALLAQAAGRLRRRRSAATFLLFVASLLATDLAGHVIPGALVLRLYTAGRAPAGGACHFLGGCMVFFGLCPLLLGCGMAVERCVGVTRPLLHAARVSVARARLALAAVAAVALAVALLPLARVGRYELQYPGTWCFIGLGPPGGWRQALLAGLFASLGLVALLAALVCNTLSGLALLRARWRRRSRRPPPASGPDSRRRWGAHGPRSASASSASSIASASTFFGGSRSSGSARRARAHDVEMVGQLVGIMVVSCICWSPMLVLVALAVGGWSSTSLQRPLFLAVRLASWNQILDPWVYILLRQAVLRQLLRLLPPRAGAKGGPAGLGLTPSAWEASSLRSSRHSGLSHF
# Test: Binding assay for the human prostanoid EP1 receptor (competition with [3H]-PGE2)
# Set-up: expressed in transfected cells; host or cells: CHO-K1 cells, membrane fraction
# Conditions: [3H]-PGE2 competition; averages of a number of experiments; read-out: pIC50 value, binding assay for the human prostanoid EP1 receptor (converted)
# Procedure: Competition assay using [^3H]-PGE2.
# Compound potencies are determined using a radioligand binding assay. In this assay compound potencies are determined from their ability to compete with tritiated prostaglandin E2 ([^3H]-PGE2) for binding to the human EP1 receptor.
# This assay utilises Chinese hamster ovary-K1 (CHO-K1) cells into which a stable vector containing the EP1 cDNA has previously been transfected. Cells are cultured in suitable flasks containing culture medium such as DMEM:F-12 supplemented with 10% v/v foetal calf serum, 2 mM L-glutamine, 0.25 mg/ml geneticin, 10 μg/ml puromycin and 10 μM indomethacin.
# Cells are detached from the culture flasks by incubation in calcium and magnesium free phosphate buffered saline containing 1 mM disodium ethylenediaminetetraacetic acid (Na2EDTA) and 10 μM indomethacin for 5 min. The cells are isolated by centrifugation at 250×g for 5mins and suspended in an ice cold buffer such as 50 mM Tris, 1 mM Na2EDTA, 140 mM NaCl, 10 μM indomethacin (pH 7.4). The cells are homogenised using a Polytron tissue disrupter (2×10 s burst at full setting), centrifuged at 48,000×g for 20mins and the pellet containing the membrane fraction is washed (optional) three times by suspension and centrifugation at 48,000×g for 20mins. The final membrane pellet is suspended in an assay buffer such as 10 mM 2-[N-morpholino]ethanesulphonic acid, 1 mM Na2EDTA, 10 mM MgCl2 (pH 6). Aliquots are frozen at […] until required.
# For the binding assay the cell membranes, competing compounds and [^3H]-PGE2 (3 nM final assay concentration) are incubated in a final volume of 100 μl for 30 min at 30° C. All reagents are prepared in assay buffer. Reactions are terminated by rapid vacuum filtration over GF/B filters using a Brandell cell harvester. The filters are washed with ice cold assay buffer, dried and the radioactivity retained on the filters is measured by liquid scintillation counting in Packard TopCount scintillation counter.
# The data are analysed using non linear curve fitting techniques to determine the concentration of compound producing 50% inhibition of specific binding (IC50).
row,IC50 [nM],Structure (SMILES)
1,≤ 1000,"O=C(O)Cc1csc(-c2cc(Cl)ccc2OCc2c(F)ccc(F)c2F)n1 [Example 67, Sodium [2-(5-chloro-2-{[(2,3,6-trifluorophenyl)methyl]oxy}phenyl)-1,3-thiazol-4-yl]acetate]"
2,≤ 1000,"O=C(O)Cc1csc(-c2cc(Cl)ccc2OCc2cc(F)c(F)cc2F)n1 [Example 68, Sodium [2-(5-chloro-2-{[(2,4,5-trifluorophenyl)methyl]oxy}phenyl)-1,3-thiazol-4-yl]acetate]"
3,≤ 1000,"O=C(O)Cc1csc(-c2cc(Cl)ccc2OCc2cc(F)c(F)c(F)c2)n1 [Example 69, Sodium [2-(5-chloro-2-{[(3,4,5-trifluorophenyl)methyl]oxy}phenyl)-1,3-thiazol-4-yl]acetate]"
4,≤ 1000,"O=C(O)Cc1csc(-c2cc(Cl)ccc2OCc2ccccc2Cl)n1 [Example 70, Sodium [2-(5-chloro-2-{[(2-chlorophenyl)methyl]oxy}phenyl)-1,3-thiazol-4-yl]acetate]"
5,≤ 31.6,"O=C(O)Cc1csc(-c2cc(Cl)ccc2OCc2ccc(Cl)cc2)n1 [Example 71, Sodium [2-(5-chloro-2-{[(4-chlorophenyl)methyl]oxy}phenyl)-1,3-thiazol-4-yl]acetate]"
6,≤ 1000,"O=C(O)Cc1csc(-c2cc(Cl)ccc2OCc2ccc(F)cc2)n1 [Example 72, Sodium [2-(5-chloro-2-{[(4-fluorophenyl)methyl]oxy}phenyl)-1,3-thiazol-4-yl]acetate]"
7,≤ 31.6,"O=C(O)Cc1csc(-c2cc(Cl)ccc2OCc2ccccc2)n1 [Example 73, Sodium [2-{5-chloro-2-[(phenylmethyl)oxy]phenyl}-1,3-thiazol-4-yl)acetate]"
8,≤ 31.6,"O=C(O)c1nc(Cc2cc(Cl)ccc2OCc2ccc(F)cc2F)cs1 [Example 74, Sodium 4-[(5-chloro-2-{[(2,4-difluorophenyl)methyl]oxy}phenyl)methyl]-1,3-thiazole-2-carboxylate]"
9,≤ 1000,"O=C(O)c1csc(Nc2cc(Cl)ccc2OCc2ccccc2)n1 [Example 75, Sodium 2-({5-chloro-2-[(phenylmethyl)oxy]phenyl}amino)-1,3-thiazole-4-carboxylate]"
10,≤ 31.6,"O=C(O)c1nc(Cc2cc(Cl)ccc2OCc2ccccc2)cs1 [Example 76, Sodium 4-({5-chloro-2-[(phenylmethyl)oxy]phenyl}methyl)-1,3-thiazole-2-carboxylate]"
11,≤ 31.6,"O=C(O)c1nc(Cc2cc(Cl)ccc2OCc2ccc(F)cc2)cs1 [Example 77, Sodium 4-[(5-chloro-2-{[(4-fluorophenyl)methyl]oxy}phenyl)methyl]-1,3-thiazole-2-carboxylate]"
12,≤ 31.6,"O=C(O)c1coc(Cc2cc(Cl)ccc2OCc2ccccc2)n1 [Example 78, Sodium 2-({5-chloro-2-[(phenylmethyl)oxy]phenyl}methyl)-1,3-oxazole-4-carboxylate]"
13,≤ 1000,"CC(C)COc1ccc(Cl)cc1C(F)(F)c1nc(C(=O)O)cs1 [Example 82, Sodium 2-[{5-chloro-2-[(2-methylpropyl)oxy]phenyl}(difluoro)methyl]-1,3-thiazole-4-carboxylate]"
14,≤ 31.6,"O=C(O)c1nc(Cc2cc(Cl)ccc2OCc2ccccc2Cl)cs1 [Example 83, Sodium 4-[(5-chloro-2-{[(2-chlorophenyl)methyl]oxy}phenyl)methyl]-1,3-thiazole-2-carboxylate]"
15,≤ 31.6,"O=C(O)c1nc(Cc2cc(Cl)ccc2OCc2ccccc2F)cs1 [Example 84, Sodium 4-[(5-chloro-2-{[(2-fluorophenyl)methyl]oxy}-phenyl)methyl]-1,3-thiazole-2-carboxylate]"
16,≤ 31.6,"O=C(O)c1nc(Cc2cc(Cl)ccc2OCc2c(F)cc(F)cc2F)cs1 [Example 85, Sodium 4-[(5-chloro-2-{[(2,4,6-trifluorophenyl)methyl]-oxy}phenyl)methyl]-1,3-thiazole-2-carboxylate]"

row,IC50 [nM],Structure (SMILES)
1,≤ 31.6,"O=C(O)c1nc(Cc2cc(Cl)ccc2OCc2ccc(Cl)cc2)cs1 [Example 86, Sodium 4-[(5-chloro-2-{[(4-chlorophenyl)methyl]-oxy}phenyl)methyl]-1,3-thiazole-2-carboxylate]"
2,≤ 31.6,"O=C(O)c1nc(Cc2cc(Cl)ccc2OCc2ccc(F)cc2Cl)cs1 [Example 87, Sodium 4-[(5-chloro-2-{[(2-chloro-4-fluorophenyl)methyl]oxy}-phenyl)methyl]-1,3-thiazole-2-carboxylate]"
3,≤ 1000,"O=C(O)c1nc(Cc2cc(Cl)ccc2OCc2c(F)ccc(F)c2F)cs1 [Example 88, Sodium 4-[(5-chloro-2-{[(2,3,6-trifluorophenyl)methyl]-oxy}phenyl)methyl]-1,3-thiazole-2-carboxylate]"
4,≤ 31.6,"O=C(O)c1nc(Cc2cc(Cl)ccc2OCc2cc(F)c(F)cc2F)cs1 [Example 89, Sodium 4-[(5-chloro-2-{[(2,4,5-trifluorophenyl)methyl]-oxy}phenyl)methyl]-1,3-thiazole-2-carboxylate]"
5,≤ 1000,"NC(=O)c1csc(Cc2cc(Cl)ccc2OCc2ccccc2)n1 [Example 90, 2-({5-Chloro-2-[(phenylmethyl)oxy]phenyl}methyl)-1,3-thiazole-4-carboxamide]"
6,≤ 31.6,"O=C(NS(=O)(=O)c1ccccc1)c1csc(Cc2cc(Cl)ccc2OCc2ccccc2)n1 [Example 100, 2-({5-Chloro-2-[(phenylmethyl)oxy]phenyl}methyl)-N-(phenylsulfonyl)-1,3-thiazole-4-carboxamide]"
7,≤ 31.6,"Clc1ccc(OCc2ccccc2)c(Cc2nc(-c3nnn[nH]3)cs2)c1 [Example 109, 5-[2-({5-Chloro-2-[(phenylmethyl)oxy]phenyl}methyl)-1,3-thiazol-4-yl]-1H-tetrazole]"
8,≤ 31.6,"O=C1CN(Cc2ccc(NC(=O)c3csc(Cc4cc(Cl)ccc4OCc4ccccc4)n3)cc2)CCN1 [Example 122, 2-({5-Chloro-2-[(phenylmethyl)oxy]phenyl}-methyl)-N-{4-[(3-oxo-1-piperazinyl)methyl]phenyl}-1,3-thiazole-4-carboxamidehydrochloride]"
9,≤ 31.6,"CC(C)COc1ccc(Cl)cc1Cc1nc(-c2nc3ccc(CN4CCCC4)cc3[nH]2)cs1 [Example 123, 2-[2-({5-Chloro-2-[(2-methylpropyl)oxy]phenyl}-methyl)-1,3-thiazol-4-yl]-5-(1-pyrrolidinylmethyl)-1H-benzimidazole hydrochloride]"
10,≤ 31.6,"Clc1ccc(OCc2ccccc2)c(Cc2nc(-c3nc4ccc(Cl)nc4[nH]3)cs2)c1 [Example 138, 5-Chloro-2-[2-({5-chloro-2-[(phenylmethyl)oxy]phenyl}methyl)-1,3-thiazol-4-yl]-1H-imidazo[4,5-b]pyridinehydrochloride]"
11,≤ 1000,"Clc1ccc(OCc2ccccc2)c(Cc2nc(-c3nnc[nH]3)cs2)c1 [Example 156, 3-[2-({5-Chloro-2-[(phenylmethyl)oxy]phenyl}methyl)-1,3-thiazol-4-yl]-1H-1,2,4-triazole]"
12,≤ 1000,"CC(C)COc1ccc(Cl)cc1Cc1nc(-c2nnc[nH]2)cs1 [Example 157, 3-[2-({5-Chloro-2-[(2-methyl-propyl)oxy]-phenyl}methyl)-1,3-thiazol-4-yl]-1H-1,2,4-triazole]"
13,> 1000,"CC(C)(C)OC(=O)Nc1coc(Cc2cc(Cl)ccc2OCc2ccccc2)n1 [Example 161, 1,1-Dimethylethyl [2-({5-chloro-2-[(phenylmethyl)oxy]phenyl}methyl)-1,3-oxazol-4-yl]carbamate]"
14,≤ 31.6,"CC(C)COc1ccc(Cl)cc1Cc1nc(-c2nc3ccccc3[nH]2)co1 [Example 162, 2-[2-({5-Chloro-2-[(2-methylpropyl)oxy]phenyl}methyl)-1,3-oxazol-4-yl]-1H-benzimidazole hydrochloride]"
15,≤ 31.6,"CC(C)COc1ccc(Cl)cc1Cc1nc(-c2nc3cc(N4CCN(C)CC4)ccc3[nH]2)co1 [Example 163, 2-[2-({5-Chloro-2-[(2-methylpropyl)oxy]phenyl}methyl)-1,3-oxazol-4-yl]-5-(4-methyl-1-piperazinyl)-1H-benzimidazoletrihydrochloride]"
